Holding throughout (format): binding
One test deals with T1, NMUR1 (Homo sapiens, UniProt Q9HB89).
T1 construct: purchased Promega (in-house HiBiT-GPCR construct library, NanoBRET)
T1 sequence (Q9HB89 1-426): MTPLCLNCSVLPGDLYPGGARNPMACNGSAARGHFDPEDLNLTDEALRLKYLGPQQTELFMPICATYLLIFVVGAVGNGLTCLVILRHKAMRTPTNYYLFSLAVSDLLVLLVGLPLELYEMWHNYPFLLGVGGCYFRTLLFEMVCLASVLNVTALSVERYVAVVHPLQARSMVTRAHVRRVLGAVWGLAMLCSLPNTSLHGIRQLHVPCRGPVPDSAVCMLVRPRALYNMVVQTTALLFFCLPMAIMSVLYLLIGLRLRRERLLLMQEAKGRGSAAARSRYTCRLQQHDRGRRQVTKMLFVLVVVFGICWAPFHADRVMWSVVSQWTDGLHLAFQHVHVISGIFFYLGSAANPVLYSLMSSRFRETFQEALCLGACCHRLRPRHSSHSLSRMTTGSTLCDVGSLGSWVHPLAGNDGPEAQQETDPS
Description: NanoBRET screen HiBiT-NMUR1 in HEK293. On the procedure:
(§1) Each tracer candidate was screened across the entire library of HiBiT-GPCR constructs using NanoBRET as the detection modality. As depicted in Figure 4A, the specificity of interactions was evaluated through decrease in BRET due to competitive displacement of a bound tracer by excess parental compound. Each tracer was analyzed for binding to each HiBiT-GPCR fusion in the absence and in the presence of competing parental compound. Briefly, HEK293 cells were transfected with HiBiT-GPCR constructs diluted into promoterless DNA to reduce expression and maximize translocation to the cell surface. Each tracer candidate was then screened at concentrations of 1 μM and 0.1 μM across cells expressing these fusions. Cells were treated for 1.5 h with tracer either alone or in the presence of 20 μM competing parental compound (i.e., control). BRET was measured upon addition of purified LgBiT and subsequent complementation with HiBiT genetically fused to a GPCR. The specificity of interactions was assessed through a decrease in BRET signal due to competitive displacement of the bound tracer. To further gauge the robustness of these interactions, the fold response over the control (i.e., BRETtracer/BRETcontrol) was calculated. We chose a 1.5-fold response, which translates to ≥7-fold signal over noise as the minimal threshold required to score an interaction as positive. […]. Below we highlight the screening results obtained for our exemplary fluorescent tracers based on Clozapine, Amitriptyline and AZD1283.
(§2) HiBiT-GPCR DNA constructs were diluted in 10 mM Tris pH 8 to a final concentration of 0.01 μg/μL, arrayed in 96-well plates and stored at −20 °C. For transfection, HEK293 cells were suspended in Opti-MEM (without phenol red) supplemented with 2% fetal bovine serum (Seradigm) and 100 units/mL penicillin–streptomycin (Gibco) at a final concentration of 220,000 cells/mL and dispensed into white 96-well plates at 90 μL/well. Subsequent transfections and screens were carried using an Agilent Bravo Automated Liquid Handling Platform. First, the 96-well HiBiT DNA arrays were diluted 25-fold in Opti-MEM (without serum or phenol red) to a final concentration of 0.0004 μg/μL and 20 μL of the diluted DNAs were transferred into new 96-well plates. Next, promoterless carrier DNA (1 μg/μL) was diluted 25-fold (0.04 μg/μL) and then dispensed into the diluted arrays at 20 μL/well. Following brief mixing, Viafect transfection reagent (Promega) diluted 16-fold into Opti-MEM was dispensed into the plates at 40 μL/well. After mixing by pipetting, plates were incubated for 10 min on the pipetting station deck. The DNA-transfection reagent complexes were then added to plates containing cells. To facilitate the screen, 10 μL of DNA-transfection reagent complexes were added in duplicates to the top 4 and bottom 4 rows, resulting in two identical 48-well arrays per plate. Plates with transfected cells were incubated for 18–20 h at 37 °C/5% CO2. A screen of each tracer across the entire library using two different concentrations requires duplicate plates of transfected cells. Depending on the number of tracers being screened, transfections can be scaled up using the same ratios. The next day, for each tracer, four 20× screening solutions in tracer dilution buffer (Promega) were prepared: two duplicates at final concentration of 20 μM and two duplicates at a final concentration of 2 μM. A competing unmodified compound was added to one of each duplicate at a final concentration of 400 μM. The four resulting solutions were diluted 4-fold in Opti-MEM without serum or phenol red to generate 5× solutions (5 µM and 0.5 µM tracer +/− 100 μM competing compound). To screen the library, a BioTek MultiFlo FX liquid dispenser was used to dispense 22.5 µL of tracer solution to the top 4 rows and 22.5 µL tracer + competing compound solution to the 4 bottom rows. Plates were briefly mixed on an orbital shaker and incubated for 1.5 h at room temperature. […]
(BRET reads energy transfer from a luciferase to a nearby fluorophore.)

For the next test, the target named is T2, PTGFR (Homo sapiens, UniProt P43088).
T2 construct: purchased Promega (in-house HiBiT-GPCR construct library, NanoBRET)
As to the kind of experiment: NanoBRET screen HiBiT-PTGFR in HEK293. On the procedure: as §1, §2

The target in a further test is T3, FZD9 (Homo sapiens, UniProt O00144).
T3 construct: purchased Promega (in-house HiBiT-GPCR construct library, NanoBRET)
T3 sequence (O00144 23-591): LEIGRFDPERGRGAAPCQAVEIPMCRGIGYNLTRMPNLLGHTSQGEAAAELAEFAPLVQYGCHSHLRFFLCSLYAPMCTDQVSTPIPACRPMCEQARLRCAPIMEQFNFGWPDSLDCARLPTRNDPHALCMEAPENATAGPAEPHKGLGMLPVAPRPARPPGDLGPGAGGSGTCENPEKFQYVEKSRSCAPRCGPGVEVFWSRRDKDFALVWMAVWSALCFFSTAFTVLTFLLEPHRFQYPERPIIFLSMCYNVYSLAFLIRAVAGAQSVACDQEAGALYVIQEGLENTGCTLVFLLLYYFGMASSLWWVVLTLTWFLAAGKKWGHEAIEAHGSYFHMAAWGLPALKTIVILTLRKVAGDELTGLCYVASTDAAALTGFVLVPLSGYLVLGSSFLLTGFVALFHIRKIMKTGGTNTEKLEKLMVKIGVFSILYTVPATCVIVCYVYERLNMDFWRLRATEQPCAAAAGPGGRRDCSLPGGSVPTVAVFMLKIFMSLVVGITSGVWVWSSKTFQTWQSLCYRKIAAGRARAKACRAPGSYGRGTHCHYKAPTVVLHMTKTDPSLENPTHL
As to the kind of experiment: NanoBRET screen HiBiT-FZD9 in HEK293. On the procedure: as §1, §2

T2 sequence (P43088 whole entry): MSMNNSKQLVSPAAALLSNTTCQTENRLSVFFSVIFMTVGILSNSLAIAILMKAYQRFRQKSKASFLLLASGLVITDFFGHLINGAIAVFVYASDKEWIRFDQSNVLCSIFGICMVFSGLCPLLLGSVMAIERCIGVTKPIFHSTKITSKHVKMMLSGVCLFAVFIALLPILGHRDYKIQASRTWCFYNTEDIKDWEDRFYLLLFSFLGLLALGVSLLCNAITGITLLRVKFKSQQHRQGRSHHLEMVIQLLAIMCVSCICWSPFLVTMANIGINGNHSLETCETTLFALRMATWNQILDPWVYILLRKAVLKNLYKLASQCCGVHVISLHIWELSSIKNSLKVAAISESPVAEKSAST

Consider `O=C(CCc1ccc2n1[B-](F)(F)[N+]1=C(c3ccc[nH]3)C=CC1=C2)NCc1ccc(C(=O)NCCOCCC(=O)N[C@@H]2CC[C@@]3(O)[C@H]4Cc5ccc(O)c6c5[C@@]3(CCN4CC3CC3)[C@H]2O6)cc1` [Naltrexone-3-NB590], for which the “NanoBRET Fold Response” value on NMUR1 (NMUR1, tracer 0.1μM) is recorded as 0.85; at NMUR1 (NMUR1, tracer 1μM), 1.07; at PTGFR (PTGFR, tracer 0.1μM) it was 1.10; at PTGFR (PTGFR, tracer 1μM), 0.91; on FZD9 (FZD9, tracer 0.1μM), 1.17; on FZD9 (FZD9, tracer 1μM), 0.96.
As to `CN1CCN(C2=Nc3cc(Cl)ccc3N(CC(=O)NCCOCCOCCOCCOCCNC(=O)CCc3ccc4n3[B-](F)(F)[N+]3=C(c5ccc[nH]5)C=CC3=C4)c3ccccc32)CC1` [Clozapine-c-2-NB590], the “NanoBRET Fold Response” value turned out to be 1.01 at NMUR1 (NMUR1, 0.1μM tracer); 1.00 at NMUR1 (NMUR1, 1μM tracer); 1.00 on PTGFR (PTGFR, 0.1μM tracer); 1.10 at PTGFR (PTGFR, 1μM tracer); 0.95 on FZD9 (FZD9, 0.1μM tracer); 0.95 at FZD9 (FZD9, 1μM tracer).
For the molecule `O=C(CCOCCOCCOCCOCCNC(=O)CCc1ccc2n1[B-](F)(F)[N+]1=C(c3ccc[nH]3)C=CC1=C2)NCCCN1CCN(C2=Nc3cc(Cl)ccc3Nc3ccccc32)CC1` [Clozapine-a-2-NB590], the “NanoBRET Fold Response” value at NMUR1 (NMUR1, 0.1μM tracer) came to 1.14; on NMUR1 (NMUR1, 1μM tracer), 1.16; on PTGFR (PTGFR, 0.1μM tracer) it was 1.04; at PTGFR (PTGFR, 1μM tracer), 1.02; at FZD9 (FZD9, 0.1μM tracer), 1.00; on FZD9 (FZD9, 1μM tracer), 1.39.
As for `CCOC(=O)c1cc(C#N)c(N2CCC(C(=O)NS(=O)(=O)Cc3ccccc3/C=C/C(=O)NCCNC(=O)CCc3ccc4n3[B-](F)(F)[N+]3=C(c5ccc[nH]5)C=CC3=C4)CC2)nc1C` [AZD1283-1-NB590], the “NanoBRET Fold Response” value at NMUR1 (NMUR1, 0.1μM) was found to be 1.05; at NMUR1 (NMUR1, 1μM), 1.04; on PTGFR (PTGFR, 0.1μM) it was 1.02; on PTGFR (PTGFR, 1μM), 1.02; at FZD9 (FZD9, 0.1μM), 1.05; at FZD9 (FZD9, 1μM) it was 1.02.
For the molecule `COc1ccc2[nH]c(-c3ccc(CNC(=O)CCOCCOCCOCCOCCNC(=O)CCc4ccc5n4[B-](F)(F)[N+]4=C(c6ccc[nH]6)C=CC4=C5)cc3)c(CCNC(C)=O)c2n1` [AzomelatoninICO9-2-NB590], the “NanoBRET Fold Response” value at NMUR1 (0.1μM tracer) is 0.77; on NMUR1 (1μM tracer), 0.91; on PTGFR (0.1μM tracer), 0.97; at PTGFR (1μM tracer) it was 0.91; on FZD9 (0.1μM tracer), 1.30; on FZD9 (1μM tracer), 0.94.
Turning to `CCCn1c(=O)c2[nH]c(-c3ccc(OCC(=O)NCCNC(=O)CCOCCNC(=O)c4ccc(CNC(=O)CCc5ccc6n5[B-](F)(F)[N+]5=C(c7ccc[nH]7)C=CC5=C6)cc4)cc3)nc2n(CCC)c1=O` [XAC-3-NB590], the “NanoBRET Fold Response” value on NMUR1 (NMUR1, tracer 0.1μM) came out at 0.91; at NMUR1 (NMUR1, tracer 1μM), 1.00; on PTGFR (PTGFR, tracer 0.1μM) it was 1.02; at PTGFR (PTGFR, tracer 1μM), 0.98; at FZD9 (FZD9, tracer 0.1μM), 1.00; at FZD9 (FZD9, tracer 1μM), 1.07.
As for `COc1ccccc1N1CCN(CCCCN2C(=O)c3ccc(CNC(=O)CCOCCNC(=O)c4ccc(CNC(=O)CCc5ccc6n5[B-](F)(F)[N+]5=C(c7ccc[nH]7)C=CC5=C6)cc4)cc3C2=O)CC1` [NAN-190-3-NB590], the “NanoBRET Fold Response” value on NMUR1 (NMUR1, tracer 0.1μM) turned out to be 1.03; on NMUR1 (NMUR1, tracer 1μM), 0.96; on PTGFR (PTGFR, tracer 0.1μM) it was 0.96; on PTGFR (PTGFR, tracer 1μM), 0.90; on FZD9 (FZD9, tracer 0.1μM), 0.94; at FZD9 (FZD9, tracer 1μM) it was 1.18.
Regarding `O=C(CCc1ccc2n1[B-](F)(F)[N+]1=C(c3ccc[nH]3)C=CC1=C2)NCc1ccc(C(=O)NCCOCCOCCNCC(O)COc2cccc3ccccc23)cc1` (stereo not shown) [Propranolol-3-NB590], the “NanoBRET Fold Response” value was found to be 1.01 on NMUR1 (NMUR1, 0.1μM); 1.00 on NMUR1 (NMUR1, 1μM); 0.97 on PTGFR (PTGFR, 0.1μM); 1.00 on PTGFR (PTGFR, 1μM); 0.98 on FZD9 (FZD9, 0.1μM); 1.09 at FZD9 (FZD9, 1μM).
Take `COc1ccc2c(n1)c(CCNC(C)=O)cn2CCNC(=O)CCc1ccc2n1[B-](F)(F)[N+]1=C(c3ccc[nH]3)C=CC1=C2` [Azamelatonin-1-NB590]: the “NanoBRET Fold Response” value is 0.78 at NMUR1 (0.1μM tracer); 0.97 on NMUR1 (1μM tracer); 1.13 at PTGFR (0.1μM tracer); 0.90 at PTGFR (1μM tracer); 1.17 at FZD9 (0.1μM tracer); 1.15 at FZD9 (1μM tracer).
Take `O=C(CCOCCOCCOCCOCCNC(=O)CCc1ccc2n1[B-](F)(F)[N+]1=C(c3ccc[nH]3)C=CC1=C2)NCCCN1CCN(C2=Nc3ccccc3Oc3ccc(Cl)cc32)CC1` [Loxapine-a-2-NB590]: the “NanoBRET Fold Response” value at NMUR1 (NMUR1, tracer 0.1μM) amounted to 1.02; at NMUR1 (NMUR1, tracer 1μM) it was 1.21; on PTGFR (PTGFR, tracer 0.1μM) it was 1.03; on PTGFR (PTGFR, tracer 1μM), 1.02; at FZD9 (FZD9, tracer 0.1μM), 1.00; on FZD9 (FZD9, tracer 1μM) it was 1.07.
As for `CN(C)CCC=C1c2ccccc2CCc2ccc(C(=O)NCCNC(=O)CCOCCOCCOCCOCCNC(=O)CCc3ccc4n3[B-](F)(F)[N+]3=C(c5ccc[nH]5)C=CC3=C4)cc21` [Amitriptyline-a-2-NB590], the “NanoBRET Fold Response” value was 1.01 at NMUR1 (tracer at 0.1μM), 0.99 on NMUR1 (tracer at 1μM), 0.96 at FZD9 (tracer at 0.1μM) and 1.07 at FZD9 (tracer at 1μM).

The values above are taken from PMC8151276, “An Integrated Approach toward NanoBRET Tracers for Analysis of GPCR Ligand Engagement” (Molecules, 2021).
